# Patent US20210393621A1, “COMBINATION SEROTONIN SPECIFIC REUPTAKE INHIBITOR AND SEROTONIN 1A RECEPTOR PARTIAL AGONIST FOR REDUCING L-DOPA-INDUCED DYSKINESIA” (The Research Foundation for The State University of new York, priority 2018, published 2021)
# Entries after “also recorded” stand apart in the source; their conditions may differ. Read-outs that look alike come from different tables or passages of the source.
# What was measured:
# 5-HT1D = 5-HT1D (Homo sapiens, UniProt P28221); details: cited from earlier work
# Sequence of 5-HT1D (P28221 whole entry, species assumed): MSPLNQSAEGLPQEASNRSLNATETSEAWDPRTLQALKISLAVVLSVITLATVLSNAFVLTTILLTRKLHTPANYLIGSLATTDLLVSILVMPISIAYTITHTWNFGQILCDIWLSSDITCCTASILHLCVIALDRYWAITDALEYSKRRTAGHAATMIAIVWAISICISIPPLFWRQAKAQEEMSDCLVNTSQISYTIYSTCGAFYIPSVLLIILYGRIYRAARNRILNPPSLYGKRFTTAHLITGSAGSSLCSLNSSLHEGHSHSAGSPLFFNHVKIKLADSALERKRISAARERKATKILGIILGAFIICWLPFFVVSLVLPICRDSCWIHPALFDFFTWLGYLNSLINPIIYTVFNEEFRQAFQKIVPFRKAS
# 5-HT2C = 5-HT2C (Homo sapiens, UniProt P28335); details: cited from earlier work
# Sequence of 5-HT2C (P28335 33-458, species assumed): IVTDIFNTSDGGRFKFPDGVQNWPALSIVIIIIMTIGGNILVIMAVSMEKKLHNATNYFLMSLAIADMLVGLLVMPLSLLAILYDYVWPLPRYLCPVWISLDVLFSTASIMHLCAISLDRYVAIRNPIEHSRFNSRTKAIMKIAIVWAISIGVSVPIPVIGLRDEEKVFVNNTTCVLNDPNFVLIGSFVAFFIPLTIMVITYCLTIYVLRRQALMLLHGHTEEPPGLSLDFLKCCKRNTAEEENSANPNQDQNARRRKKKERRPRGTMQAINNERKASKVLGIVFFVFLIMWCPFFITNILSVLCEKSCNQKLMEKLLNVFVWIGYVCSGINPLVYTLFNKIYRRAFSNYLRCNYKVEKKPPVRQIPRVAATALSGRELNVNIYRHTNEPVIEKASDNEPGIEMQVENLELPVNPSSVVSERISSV
# [1] = system: L-DOPA-primed 6-OHDA-lesioned rats; experiment: Experiment 3: AIMs with 5-HT1AR or 5-HT1BR antagonist before Vilazodone and L-DOPA; type: in vivo, Sprague-Dawley rats
# Method: In each study, the LD-primed rats received (FIG. 4A) the 5-HT1AR antagonist WAY100635 [WAY; 0 or 0.5 mg/kg, s.c.] or (FIG. 4B) the 5-HT1BR antagonist NAS [NAS; 0 or 0.3 mg/kg, s.c.]) 5 min prior to VZD (0 or 10 mg/kg, s.c.) injected 5 min prior to LD (6 mg/kg, s.c.) in a within-subjects counterbalanced design. ALO AIMs were evaluated and are shown for every 10 min for 3 h after LD administration.
# All 6-OHDA-lesioned rats (n=17) were tested on the FAS prior to treatment regimens to establish baseline motor performance. Three-weeks post-surgery, all rats were primed with L-DOPA (6 mg/kg, s.c.) for 14 days.
# [2] = system: 6-OHDA-lesioned hemi-parkinsonian rats; experiment: Experiment 1: forepaw adjusting steps (FAS); type: in vivo, Sprague-Dawley rats
# Text: Conti et al., 2014). […] Forepaw adjusting steps (FAS): The FAS test is a measure of forelimb akinesia performed according to previous protocols (Bishop et al., 2012; Chang et al., 1999). Data are presented as mean percent intact stepping where the sum of the total steps with the lesioned forepaw was divided by the total steps with the unlesioned forepaw multiplied by 100. Lower percent intact scores indicate greater forelimb akinesia. Prior to baseline, rats received 2 acclimation periods. On-treatment FAS was performed 60 min post-L-DOPA.
# [3] = system: extracellular 5-HT, dopamine and norepinephrine; details: cited from earlier work; for maximal increase of extracellular 5-HT: rats, acute systemic injection, measured 3 h after injection
# [4] = system: 6-OHDA-lesioned hemi-parkinsonian rats; experiment: Experiment 1: AIMs, established LID in L-DOPA-primed hemi-parkinsonian rats; type: in vivo, Sprague-Dawley rats
# 5-HT1A receptor = biological target: T1, 5-HT1A receptor (Homo sapiens, UniProt P08908); design: expressed in transfected cells; host or cells: SF9 cells; details: 5-HT1A receptor expressed in SF9 cells; cited from earlier work
# T1 sequence (P08908 1-422): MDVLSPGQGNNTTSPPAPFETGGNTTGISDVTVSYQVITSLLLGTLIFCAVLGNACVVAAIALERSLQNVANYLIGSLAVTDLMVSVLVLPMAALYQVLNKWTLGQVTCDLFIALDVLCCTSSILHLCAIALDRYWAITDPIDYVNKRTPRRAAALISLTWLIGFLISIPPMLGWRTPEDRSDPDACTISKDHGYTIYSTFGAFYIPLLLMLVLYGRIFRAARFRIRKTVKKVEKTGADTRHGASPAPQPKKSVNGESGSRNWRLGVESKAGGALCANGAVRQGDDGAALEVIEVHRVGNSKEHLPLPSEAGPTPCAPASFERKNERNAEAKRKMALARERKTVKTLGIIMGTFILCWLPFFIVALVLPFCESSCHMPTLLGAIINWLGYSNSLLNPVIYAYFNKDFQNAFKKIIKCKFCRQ
# [5] = biological target: norepinephrine transporter (NET) (Homo sapiens, UniProt P23975); details: read-out: Ki for NET (norepinephrine reuptake site); cited from earlier work
# Sequence of norepinephrine transporter (NET) (P23975 whole entry): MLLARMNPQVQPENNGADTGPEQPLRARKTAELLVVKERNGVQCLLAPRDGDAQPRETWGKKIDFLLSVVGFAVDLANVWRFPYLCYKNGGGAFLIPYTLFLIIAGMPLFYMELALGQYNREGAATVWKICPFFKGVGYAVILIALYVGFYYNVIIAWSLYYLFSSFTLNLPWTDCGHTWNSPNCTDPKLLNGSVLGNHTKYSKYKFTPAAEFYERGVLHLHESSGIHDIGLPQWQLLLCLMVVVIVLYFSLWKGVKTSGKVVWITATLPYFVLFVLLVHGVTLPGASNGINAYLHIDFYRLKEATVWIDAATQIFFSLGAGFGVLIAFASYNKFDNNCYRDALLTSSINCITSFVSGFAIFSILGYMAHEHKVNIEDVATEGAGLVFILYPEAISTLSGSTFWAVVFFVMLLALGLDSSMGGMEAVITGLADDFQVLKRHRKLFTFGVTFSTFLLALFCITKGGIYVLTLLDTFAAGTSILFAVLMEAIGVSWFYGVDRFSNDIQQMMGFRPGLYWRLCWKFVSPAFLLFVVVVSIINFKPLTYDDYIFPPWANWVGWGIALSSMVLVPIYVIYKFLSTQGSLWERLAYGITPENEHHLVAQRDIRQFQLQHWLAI
# [6] = system: MSNs of dyskinetic 6-OHDA-lesioned rats; experiment: Example 2: electrophysiology of corticostriatal transmission and striatal MSN activity; type: in vivo; details: vilazodone co-administration with L-DOPA
# Method: Rats were treated for 5 consecutive days/week, for 2 weeks. On the second day of each week, stepping tests were performed prior to drug administration, and 60 minutes post L-DOPA treatment. Behavioral assessment of LIDs was performed (30-180 min) at the end of each week. […] Electrophysiological studies were conducted to assess the impact of these treatments on corticostriatal transmission and striatal neuronal activity.
# [7] = system: 6-OHDA-lesioned hemi-parkinsonian rats; experiment: Experiment 2: AIMs, LID development in L-DOPA-naive hemi-parkinsonian rats; type: in vivo, Sprague-Dawley rats; details: treatment naive rats; VZD 10 or 20 mg/kg + L-DOPA 6 mg/kg, 3 weeks; vs Vilazodone (0 mg/kg)+L-DOPA (6 mg/kg)
# Method: Baseline forepaw adjusting step (FAS) data was collected 3 weeks after sham or […] lesion surgery, but prior to LD exposure. Sham animals received daily VZD (0 mg/kg)+L-DOPA (0 mg/kg) and 6-OHDA-lesioned animals received daily VZD (0, 10 or 20 mg/kg; s.c.)+LD (6 mg/kg; s.c.). All VZD injections were administered 5 min prior to LD. (FIG. 2A) AIMs and (FIG. 2B) FAS were evaluated on days 1, 8, 15, and 22. AIMs values expressed are the median sum of axial, limb, and orolingual (ALO) behaviors. ALO AIMs were evaluated every 10 min for 3 h post-LD administration. Values are expressed as medians [±median absolute difference (M.A.D.)]. FAS were evaluated 60 min post LD and are expressed as the mean overall steps […] to lesion multiplied by 100.
# After recovery, FAS established baseline motor disability. 6-OHDA-lesioned animals were divided into 3 equally disabled groups. […] AIMs ([…]) and FAS (FIG. 2B) were measured on Days 1, 8, 15, and 22 of treatment.
# Beginning 10 min post-treatment, a trained and blinded observer assigned a severity score (0-4) to each of the ALO AIMs based on 1 min ratings every 10 min for 3 h: 0, not present; 1, present from 1-29 s; 2, present 30-59 s; 3, present all 60 s, but interruptible by a cylinder tap; 4, present 60 s and not interruptible by a cylinder tap.
# 5-HT2A = 5-HT2A (Homo sapiens, UniProt P28223); details: cited from earlier work
# Sequence of 5-HT2A (P28223 whole entry, species assumed): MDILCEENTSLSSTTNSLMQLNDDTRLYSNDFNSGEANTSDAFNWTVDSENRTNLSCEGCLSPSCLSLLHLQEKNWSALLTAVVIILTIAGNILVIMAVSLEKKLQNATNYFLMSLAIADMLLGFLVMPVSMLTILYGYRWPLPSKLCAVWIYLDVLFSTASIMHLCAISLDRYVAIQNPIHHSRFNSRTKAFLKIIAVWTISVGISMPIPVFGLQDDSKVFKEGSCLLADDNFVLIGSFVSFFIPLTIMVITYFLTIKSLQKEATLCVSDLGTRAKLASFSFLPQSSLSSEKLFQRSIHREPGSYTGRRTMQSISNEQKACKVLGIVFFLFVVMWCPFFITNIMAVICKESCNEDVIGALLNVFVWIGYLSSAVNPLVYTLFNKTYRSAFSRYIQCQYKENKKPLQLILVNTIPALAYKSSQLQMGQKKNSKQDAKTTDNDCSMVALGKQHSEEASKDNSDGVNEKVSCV
# [8] = system: unilateral 6-OHDA-lesioned rats; experiment: Example 2: L-DOPA-induced dyskinesias (LIDs) scoring; type: in vivo, Sprague-Dawley rats; details: pretreatment with vilazodone 10 mg/kg or escitalopram 12.5 mg/kg before L-DOPA 5 mg/kg, 2 weeks; hydrochloride
# Method: 6-OHDA-induced dopaminergic lesions: Adult male Sprague-Dawley rats were randomly assigned to groups receiving either a 6-OHDA or sham lesion. […] [[…] 2019]. […] Rats were treated for 5 consecutive days/week (Mon-Fri), for 2 weeks. […] All rats were evaluated three times per week for the presence of L-DOPA-induced dyskinesias (LIDs) (Wed-Fri) and once for the stepping test (Tue). […] Scores were given over 1 min epochs and classified as axial, limb, orolingual and locomotive. […] Arrows=inhibitory input; dashed arrows=compromised function. The severity of each LID was scored using a standard scale. Each dyskinetic behavior was given an intensity and frequency score, which were then multiplied. The average sum of the products of each LID was determined in each animal.
smiles,measurement,setting,value
"Cl.N#Cc1ccc2[nH]cc(CCCCN3CCN(c4ccc5oc(C(N)=O)cc5c4)CC3)c2c1 [Vilazodone, 5-{4-[4-(5-cyano-3-indolyl)-butyl]-1-piperazinyl}-benzofuran-2-carboxamide hydrochloride]",affinity for 5-HT1D,5-HT1D,negligible affinity
same,affinity for 5-HT2C,5-HT2C,negligible affinity
same,"ALO AIMs, 5-HT1BR study","[1]; NAS-181 0 or 3.0 mg/kg, then VZD 0 or 10 mg/kg, then L-DOPA 6 mg/kg, s.c.",significantly reduced ALO AIMs
same,"LID duration, time course",[1]; VZD 10 mg/kg + L-DOPA 6 mg/kg,little effect on LID duration
same,"peak dyskinesia, time course",[1]; VZD 10 mg/kg + L-DOPA 6 mg/kg,reduced peak dyskinesia
same,"summed ALO AIMs, 5-HT1AR study","[1]; WAY100635 0 or 0.5 mg/kg, then VZD 0 or 10 mg/kg, then L-DOPA 6 mg/kg, s.c.",significantly reduced ALO AIMs
same,FAS motor performance versus baseline,"[2]; L-DOPA-primed rats, VZD 0, 10 or 20 mg/kg + L-DOPA 6 mg/kg, 60 min post-L-DOPA",improvements in rats treated with Vilazodone emerged 7 days later
same,FAS stepping versus Vilazodone (0 mg/kg)+L-DOPA (6 mg/kg),"[2]; VZD 20 mg/kg, Day 29, effect transient",depressed stepping
same,maximal increase of extracellular 5-HT,[3]; frontal cortex,527%
same,extracellular dopamine and norepinephrine,"[3]; rat brain, vilazodone 1 and 10 mg/kg",caused no change
same,maximal increase of extracellular 5-HT,[3]; ventral hippocampus,558%
same,"anti-LID efficacy, high versus low dose","[4]; 20 mg/kg vs 10 mg/kg, initially, dissipated after the first week",greater anti-LID efficacy than the lower dose
same,"ALO AIMs, established LID","[4]; VZD 10 or 20 mg/kg s.c. 5 min prior to L-DOPA 6 mg/kg, vs Vilazodone (0 mg/kg)+L-DOPA (6 mg/kg), from first day throughout treatment",dramatically reduced AIMs
same,"side effects, like 5-HT syndrome","[4]; chronic Vilazodone + L-DOPA in rats, any time point",weren't observed at any time point
same,reduction of development and expression of LID compared with Amantadine,[4]; validated rodent model,more effective than Amantadine
same,increase of [35S]GTPγS binding compared to vehicle,5-HT1A receptor,fourfold
same,Ki,[5],56 nM
same,spike probability and onset latency,[6],normalizes spike probability and onset latency
same,"ALO AIMs, development of LID",[7],significantly attenuated the development of LID
same,affinity for 5-HT2A,5-HT2A,negligible affinity
same,LIDs score / severity,[8],most significant effect on attenuating LIDs; also recorded: significantly reduced LIDs
